Values of other authors, collected in patent US20080021079A1, “Compounds, Compositions, and Methods” (priority 2003, published 2008).

tested on: A549 cells

GI50 [µM]	SMILES
1	O=c1[nH]cc(F)c(=O)[nH]1 [5-fluorouracil]
0.063	COc1cccc2c1C(=O)c1c(O)c3c(c(O)c1C2=O)C[C@@](O)(C(=O)CO)C[C@@H]3O[C@H]1C[C@H](N)[C@H](O)[C@H](C)O1 [doxorubicin]
0.004	CC(=O)O[C@H]1C(=O)[C@@]2(C)[C@H]([C@H](OC(=O)c3ccccc3)[C@]3(O)C[C@H](OC(=O)[C@H](O)[C@@H](NC(=O)c4ccccc4)c4ccccc4)C(C)=C1C3(C)C)[C@]1(OC(C)=O)CO[C@@H]1C[C@@H]2O [paclitaxel]
500	NC(=O)NO [hydroxyurea]
